inhibition, Activity and IC50 data for 6 molecules are collected here from ChEMBL document CHEMBL3580557, “Anti-inflammatory Terpenoids from the Leaves and Twigs of Dysoxylum gotadhora” (J Nat Prod, 2015).

Data set [1] has as its system RAW264.7. The experiment in a line: Antiinflammatory activity in mouse RAW264.7 cells assessed as inhibition of LPS-induced nitric oxide production at 12.5 uM after 24 hrs by Griess assay relative to control. The format is functional. As to conditions: RAW264.7, 24 h.
The subject of data set [2] is RAW264.7. In words: Antiinflammatory activity in mouse RAW264.7 cells assessed as inhibition of LPS-induced nitric oxide production at 50 uM after 24 hrs by Griess assay relative to control. It counts as functional. The settings on record: RAW264.7, 24 h.
In data set [3] the test system is RAW264.7. The experiment in a line: Antiinflammatory activity in mouse RAW264.7 cells assessed as inhibition of LPS-induced nitric oxide production at 25 uM after 24 hrs by Griess assay relative to control. The format is functional. As to conditions: RAW264.7, 24 h.
Data set [4] has as its system RAW264.7. In words: Cytotoxicity against mouse RAW264.7 cells assessed as cell viability after 16 hrs by MTT assay. It counts as cell-based. The settings on record: raw264.7, 16 h. A general note: Tetrazolium assays rely on reduction of a dye to a coloured formazan, in cell work by metabolically active cells.
Data set [5] deals with RAW264.7. The experiment in a line: Antiinflammatory activity in mouse RAW264.7 cells assessed as inhibition of LPS-induced nitric oxide production after 24 hrs by Griess assay. The settings on record: RAW264.7, 24 h. The format is functional, cell-based. In general terms: Nitrite, measured by Griess reagent, commonly stands in for NO production.
Data set [6] concerns RAW264.7. In words: Antiinflammatory activity in mouse RAW264.7 cells assessed as inhibition of LPS-induced nitric oxide production at 6.3 uM after 24 hrs by Griess assay relative to control. The format is functional. The settings on record: RAW264.7, 24 h.
For data set [7], the system named is RAW264.7. In words: Antiinflammatory activity in mouse RAW264.7 cells assessed as inhibition of LPS-induced nitric oxide production at 3.1 uM after 24 hrs by Griess assay relative to control. The settings on record: RAW264.7, 24 h. The format is functional.

Consider `CC(C)(O)[C@H]1OC[C@@H]([C@H]2CC[C@@]3(C)[C@@H]4CC[C@H]5C(C)(C)C(=O)CC[C@@]56C[C@@]46CC[C@]23C)C[C@@H]1O`, for which the inhibition (commonly how much of the control response was suppressed) at 12.5 µM in the data set with RAW264.7 [1] was 23.2%. Besides, the inhibition at 50 µM in the data set on RAW264.7 [2] stood at 76.2%. Also, in the data set with RAW264.7 [3], the inhibition at 25 µM came out at 49%. Further, in the data set with RAW264.7 [4], the Activity result is reported as “Non-toxic”. Also, the IC50 (usually the point on the concentration scale where inhibition reaches its midpoint) in the data set on RAW264.7 [5] worked out at 25.5 µM. Further, in the data set on RAW264.7 [6], the inhibition at 6.3 µM turned out to be 18.5%. In addition, the inhibition at 3.1 µM in the data set on RAW264.7 [7] was found to be 12.5%.

In the case of `CC1(C)OC[C@@H]([C@H]2CC[C@@]3(C)[C@@H]4CC[C@H]5C(C)(C)C(=O)CC[C@@]56C[C@@]46CC[C@]23C)C[C@@H](O)[C@@H]1O`, the inhibition at 12.5 µM with RAW264.7 [1] was found to be 13.5%. Moreover, the inhibition at 50 µM with RAW264.7 [2] is 58.9%. Besides, in the data set with RAW264.7 [3], the inhibition at 25 µM amounted to 28.3%. In addition, the Activity result in the data set with RAW264.7 [4] is recorded as “Non-toxic”. The IC50 in the data set with RAW264.7 [5] was determined as 41.5 µM. Moreover, the inhibition at 6.3 µM in the data set with RAW264.7 [6] was determined as 4.5%. The inhibition at 3.1 µM in the data set with RAW264.7 [7] was 11.3%.

On to `C[C@H](C[C@@H](O)[C@H](O)C(C)(C)O)[C@H]1CC[C@@]2(C)[C@@H]3CC[C@H]4C(C)(C)C(=O)CC[C@@]45C[C@@]35CC[C@]12C`, for which, in the data set with RAW264.7 [1], the inhibition at 12.5 µM was 23.8%. In the data set with RAW264.7 [2], the inhibition at 50 µM was 79.1%. Besides, the inhibition at 25 µM in the data set on RAW264.7 [3] came to 48.5%. Also, in the data set on RAW264.7 [4], the Activity result was “Non-toxic”. In the data set on RAW264.7 [5], the IC50 came out at 27.4 µM. Moreover, in the data set on RAW264.7 [6], the inhibition at 6.3 µM worked out at 17.9%. The inhibition at 3.1 µM with RAW264.7 [7] stood at 12.8%.

`C=C[C@@]1(C)CC(=O)[C@H]2[C@@H](CC[C@H]3C(C)(C)[C@@H](O)CC[C@]23C)C1`: in the data set on RAW264.7 [1], the inhibition at 12.5 µM was found to be 41.5%. For the same molecule, the inhibition at 50 µM in the data set with RAW264.7 [2] amounted to 92.4%. The inhibition at 25 µM with RAW264.7 [3] worked out at 63.8%. For the same molecule, in the data set with RAW264.7 [4], the Activity entry is given as “Non-toxic”. Moreover, the IC50 in the data set with RAW264.7 [5] is 14.5 µM. Further, the inhibition at 6.3 µM with RAW264.7 [6] worked out at 25.6%. In addition, the inhibition at 3.1 µM in the data set on RAW264.7 [7] is 19.8%.

As for `COC(=O)/C=C(\C)CC[C@@]1(C)[C@H](C)CC[C@@]2(C)C(C)=CC(=O)C[C@H]12`, in the data set with RAW264.7 [1], the inhibition at 12.5 µM came out at 24.8%. Further, the inhibition at 50 µM with RAW264.7 [2] is 56.6%. The inhibition at 25 µM in the data set with RAW264.7 [3] turned out to be 35.3%. In addition, the Activity entry in the data set on RAW264.7 [4] is given as “Non-toxic”. The IC50 in the data set with RAW264.7 [5] turned out to be 45.2 µM. Further, the inhibition at 6.3 µM in the data set with RAW264.7 [6] was found to be 19.9%. For the same molecule, the inhibition at 3.1 µM in the data set on RAW264.7 [7] came to 19.4%.

On to `COc1ccc2c(c1)c(CC(=O)O)c(C)n2C(=O)c1ccc(Cl)cc1` [INDOMETHACIN], for which, in the data set with RAW264.7 [1], the inhibition at 12.5 µM stood at 38.5%. The inhibition at 50 µM with RAW264.7 [2] came to 57.9%. In addition, the inhibition at 25 µM in the data set on RAW264.7 [3] turned out to be 44.3%. Also, in the data set on RAW264.7 [6], the inhibition at 6.3 µM came to 24.5%. The inhibition at 3.1 µM with RAW264.7 [7] stood at 21.5%.
